Data: patent US10689340B2, “Substituted indoline derivatives as dengue viral replication inhibitors” (priority 2016, dated 2020)

How the values were obtained:
DENV-2 16681 strain = assay: DENV-2 antiviral assay (eGFP fluorescence); type: cell-based, Dengue virus; conditions: DENV-2 16681 eGFP, Vero cells, MOI 0.5, 3 days
Procedure: The antiviral activity of all the compounds of the invention was tested against the DENV-2 16681 strain which was labeled with enhanced green fluorescent protein (eGPF). The culture medium consists of minimal essential medium supplemented with 2% of heat-inactivated fetal calf serum, 0.04% gentamycin (50 mg/mL) and 2 mM of L-glutamine. Vero cells, obtained from ECACC, were suspended in culture medium and 25 μL was added to 384-well plates (2500 cells/well), which already contain the antiviral compounds. Typically, these plates contain a 5-fold serial dilution of 9 dilution steps of the test compound at 200 times the final concentration in 100% DMSO (200 nL). […] Finally, each plate contains wells which are assigned as virus controls (containing cells and virus in the absence of compound), cell controls (containing cells in the absence of virus and compound) and medium controls (containing medium in the absence of cells, virus and compounds). To the wells assigned as medium control, 25 μL of culture medium was added instead of Vero cells. Once the cells were added to the plates, the plates were incubated for 30 minutes at room temperature to allow the cells to distribute evenly within the wells. Next, the plates were incubated in a fully humidified incubator (37° C., 5% CO2) until the next day. Then, DENV-2 strain 16681, labeled with eGFP, was added at a multiplicity of infection (MOI) of 0.5. Therefore, 15 μL of virus suspension was added to all the wells containing test compound and to the wells assigned as virus control. In parallel, 15 μL of culture medium was added to the medium and cell controls. Next, the plates were incubated for 3 days in a fully humidified incubator (37° C., 5% CO2). At the day of the read out, the eGFP fluorescence was measured using an automated fluorescence microscope at 488 nm (blue laser). Using an in-house LIMS system, inhibition dose response curves for each compound were calculated and the half maximal effective concentration (EC50) was determined. Therefore, the percent inhibition (I) for every test concentration is calculated using the following formula: I=100*(ST-SCC)/(SVC-SCC); ST, SCC and SVC are the amount of eGFP signal in the test compound, cell control and virus control wells, respectively. The EC50, represents the concentration of a compound at which the virus replication is inhibited with 50%, as measured by a 50% reduction of the eGFP fluorescent intensity compared to the virus control. The EC50 is calculated using linear interpolation (Table 1).

in vitro = conditions: African green monkey
Vero cells = conditions: African green monkey
[1] = Dengue virus, DENV2, Vero, 72 h

Row | Compound | EC50 (DENV-2 16681 strain; [1]) [nM] | CC50 (in vitro) [nM] | EC50 (DENV-2 16681 strain) [nM] | CC50 (Vero cells) [nM]
1 | COc1cc(NC(C(=O)N2CCc3ccc(OC(F)(F)F)cc32)c2ccc(Cl)cc2)cc(OCCCC(=O)O)c1 (racemic) [Compound 4, 4-(3-((1-(4-chlorophenyl)-2-oxo-2-(6-(trifluoromethoxy)indolin-1-yl)ethyl)amino)-5-methoxyphenoxy)butanoic acid] | 0.15 | 10000 |  | 
2 | COc1cc(NC(C(=O)N2CCc3ccc(OC(F)(F)F)cc32)c2ccc(Cl)cc2OC)cc(OCCCC(=O)O)c1 (single isomer, unassigned) [Compound 8A] |  | 12000 | 280 | 
3 | COc1cc(NC(C(=O)N2CCc3ccc(C(F)(F)F)cc32)c2ccc(Cl)cc2F)cc(OCCCC(=O)O)c1 (racemic) [Compound 9, 4-(3-((1-(4-chloro-2-fluorophenyl)-2-oxo-2-(6-(trifluoromethyl)indolin-1-yl)ethyl)amino)-5-methoxy-phenoxy)butanoic acid] | 0.96 | 11000 |  | 
4 | COc1cc(NC(C(=O)N2CCc3cc(OC)c(C(F)(F)F)cc32)c2ccc(Cl)cc2)cc(OCCCC(=O)O)c1 (racemic) [Compound 5, 4-(3-((1-(4-chlorophenyl)-2-(5-methoxy-6-(trifluoromethyl)indolin-1-yl)-2-oxoethyl)amino)-5-methoxyphenoxy)butanoic Acid] | 0.62 | 13000 |  | 
5 | COc1cc(NC(C(=O)N2CCc3cc(OC)c(C(F)(F)F)cc32)c2ccc(Cl)cc2OC)cc(OCCCC(=O)O)c1 (racemic) [Compound 7, 4-(3-((1-(4-chloro-2-methoxyphenyl)-2-(5-methoxy-6-(trifluoromethyl)indolin-1-yl)-2-oxoethyl)amino)-5-methoxyphenoxy)butanoic acid] | 0.47 | 12000 |  | 
6 | COc1cc(NC(C(=O)N2CCc3ccc(OC(F)(F)F)cc32)c2ccc(F)cc2)cc(OCCCC(=O)O)c1 (single isomer, unassigned) [Compound 2A] |  | 14000 | 56 | 
7 | COc1cc(NC(C(=O)N2CCc3ccc(C(F)(F)F)cc32)c2ccc(F)cc2)cc(OCCCC(=O)O)c1 (single isomer, unassigned) [Compound 1A] |  | > 25000 | 180 | 
8 | COc1cc(NC(C(=O)N2CCc3ccc(C(F)(F)F)cc32)c2ccc(Cl)cc2)cc(OCCCC(=O)O)c1 (single isomer, unassigned) [Compound 3A] |  | 11000 | 3.9 | 
9 | COc1cc(NC(C(=O)N2CCc3ccc(OC(F)(F)F)cc32)c2ccc(Cl)cc2F)cc(OCCCC(=O)O)c1 (single isomer, unassigned) [Compound 10B] |  |  | 5.5 | 8800
10 | COc1cc(NC(C(=O)N2CCc3cc(OC)c(C(F)(F)F)cc32)c2ccc(Cl)cc2)cc(OCCCC(=O)O)c1 (single isomer, unassigned) [Compound 5A] |  | 12000 | 19 | 
11 | COc1cc(NC(C(=O)N2CCc3ccc(OC(F)(F)F)cc32)c2ccc(Cl)cc2OC)cc(OCCCC(=O)O)c1 (racemic) [Compound 8, 4-(3-((1-(4-chloro-2-methoxyphenyl)-2-oxo-2-(6-(trifluoro-methoxy)indolin-1-yl)ethyl)amino)-5-methoxyphenoxy)butanoic acid] | 0.13 | 12000 |  | 
12 | COc1cc(NC(C(=O)N2CCc3cc(OC)c(C(F)(F)F)cc32)c2ccc(Cl)cc2OC)cc(OCCCC(=O)O)c1 (single isomer, unassigned) [Compound 7A] |  | 12000 | 24 | 
13 | COc1cc(NC(C(=O)N2CCc3ccc(C(F)(F)F)cc32)c2ccc(Cl)cc2OC)cc(OCCCC(=O)O)c1 (racemic) [Compound 6, 4-(3-((1-(4-chloro-2-methoxyphenyl)-2-oxo-2-(6-(trifluoro-methyl)indolin-1-yl)ethyl)amino)-5-methoxyphenoxy)butanoic acid] | 0.31 | 12000 |  | 
14 | COc1cc(NC(C(=O)N2CCc3cc(OC)c(OC(F)(F)F)cc32)c2ccc(Cl)cc2)cc(OCCCC(=O)O)c1 (single isomer, unassigned) [Compound 12A] |  | 12000 | 380 | 
15 | COc1cc(NC(C(=O)N2CCc3cc(OC)c(C(F)(F)F)cc32)c2ccc(Cl)cc2F)cc(OCCCC(=O)O)c1 (single isomer, unassigned) [Compound 11A] |  | 12000 | 15 | 
16 | COc1cc(NC(C(=O)N2CCc3ccc(OC(F)(F)F)cc32)c2ccc(F)cc2)cc(OCCCC(=O)O)c1 (racemic) [Compound 2, 4-(3-((1-(4-fluorophenyl)-2-oxo-2-(6-(trifluoromethoxy)indolin-1-yl)ethyl)amino)-5-methoxyphenoxy)butanoic acid] | 0.55 | 12000 |  | 
17 | COc1cc(NC(C(=O)N2CCc3ccc(OC(F)(F)F)cc32)c2ccc(Cl)cc2)cc(OCCCC(=O)O)c1 (single isomer, unassigned) [Compound 4A] |  | 10000 | 31 | 
18 | COc1cc(NC(C(=O)N2CCc3ccc(C(F)(F)F)cc32)c2ccc(Cl)cc2OC)cc(OCCCC(=O)O)c1 (single isomer, unassigned) [Compound 6A] |  | 12000 | 23 | 
19 | COc1cc(NC(C(=O)N2CCc3cc(OC)c(C(F)(F)F)cc32)c2ccc(Cl)cc2F)cc(OCCCC(=O)O)c1 (racemic) [Compound 11, 4-(3-((1-(4-chloro-2-fluorophenyl)-2-(5-methoxy-6-(trifluoromethyl)indolin-1-yl)-2-oxoethyl)amino)-5-methoxyphenoxy)butanoic acid] | 0.66 | 11000 |  | 
20 | COc1cc(NC(C(=O)N2CCc3ccc(C(F)(F)F)cc32)c2ccc(F)cc2)cc(OCCCC(=O)O)c1 (racemic) [Compound 1, 4-(3-((1-(4-fluorophenyl)-2-oxo-2-(6-(trifluoromethyl)-indolin-1-yl)ethyl)amino)-5-methoxyphenoxy)butanoic acid] | 2.1 | > 25000 |  | 
21 | COc1cc(NC(C(=O)N2CCc3ccc(OC(F)(F)F)cc32)c2ccc(Cl)cc2F)cc(OCCCC(=O)O)c1 (racemic) [Compound 10, 4-(3-((1-(4-chloro-2-fluorophenyl)-2-oxo-2-(6-(trifluoromethoxy)indolin-1-yl)ethyl)amino)-5-methoxy-phenoxy)butanoic acid] | 0.24 | 10000 |  | 
22 | COc1cc(NC(C(=O)N2CCc3ccc(C(F)(F)F)cc32)c2ccc(Cl)cc2F)cc(OCCCC(=O)O)c1 (single isomer, unassigned) [Compound 9A] |  | 12000 | 31 | 
23 | COc1cc(NC(C(=O)N2CCc3cc(OC)c(OC(F)(F)F)cc32)c2ccc(Cl)cc2)cc(OCCCC(=O)O)c1 (racemic) [Compound 12, 4-(3-((1-(4-chlorophenyl)-2-(5-methoxy-6-(trifluoro-methoxy)indolin-1-yl)-2-oxoethyl)amino)-5-methoxyphenoxy)butanoic acid] | 0.73 | 12000 |  | 
